# Data: PubChem BioAssay AID2060893 (Molecular Pharmacology Branch, DTP, NCI, 2025)
# “And” between values parts separate entries of the source, which are not always exact repeats. Equal entries are not always repeated.
# Tested on: K86415-001-R-J1-PDC complex spheroids, viability
# Assay: Anticancer human tumor K86415-001-R-J1-PDC patient-derived lung adenocarcinoma cell line growth inhibition [RAS]
# Conditions: compound 1 µM; stronger effect = lower value
# From the text: RAS pathway inhibitors in Combinations in Complex Spheroids
# A high-throughput screen of multi-cell type tumor spheroids was designed to identify active combinations of RAS pathway inhibitors and targeted small molecules. Complex spheroids include a stromal component modeled by human endothelial cells (HUVEC) and fibroblasts modeled by human mesenchymal stem cells (MSCs). The concentration ranges selected for each drug and investigational agent were based upon clinically achievable concentrations if the clinical Cmax of the agent was known.
# Compounds. The drugs and investigational agents: abemaciclib (NSC768073), cobimetinib (NSC768068), divarasib (GDC6063, NSC841802), docetaxel (NSC628503), GDC-1971 (RLY-1971, NSC841576), gemcitabine (NSC613327), inavolisib (NSC800729), ipatasertib (NSC767898), KB-0742 (NSC834161), MRTX-1133 (NSC836407), osimertinib (NSC779217), RMC-4630 (NSC839698), RMC-6236 (NSC851965), RMC-6291 (NSC852671), Ro-3306 (NSC812927), sapanisertib (NSC764658), SN-38 (NSC673596), staurosporine (NSC755774), SY5609 (NSC837396), and tovorafenib (DAY101, NSC766906), were obtained from the National Cancer Institute (NCI) Developmental Therapeutics Program Chemical Repository. The FDA-approved anticancer drug set is available from the NCI Developmental Therapeutics Program. […] The stock solutions were prepared in dimethyl sulfoxide (DMSO, Sigma-Aldrich, St. Louis, MO, cat. D2650) at 800-fold the tested concentration and stored at -70 degrees C prior to their use. All drugs and investigational agents were tested over a range starting from a high concentration at or near the clinical Cmax and decreasing in half-log increments. If the clinical Cmax for an agent had not been determined, the highest concentration tested was 10 microM.
# Cell Culture. All cells were maintained in an incubator at 37 degrees C and 5% CO2 with 95% humidity. The PDC lines were cultured according to standard operating procedures established by the NCI PDMR. All PDCs were thawed and cultured in Matrigel-coated flasks prepared with a working solution of 1X Ham's F-12 nutrient mix, without supplementation (Invitrogen, Waltham, MA, cat. 11765054), 100 U/mL penicillin-streptomycin (Invitrogen, cat. 15140122), and 2.5% Matrigel (Corning Inc., Corning, NY, cat. 354248) for the first three passages. The 362531-283-R-J2-PDC and 782815-120-R-J1-PDC lines were cultured in 6C/Colon 1B media, which includes advanced DMEM/F-12 (Thermo Fisher Scientific, cat. 12634028), 10 mM HEPES (Thermo Fisher Scientific, cat. 15630080), 1X GlutaMAX supplement (Thermo Fisher Scientific, cat. 35050061), 0.1 mg/mL primocin (InvivoGen, San Diego, CA, cat. ant-pm-2), 10% defined fetal bovine serum, heat inactivated (HyClone Laboratories Inc., Logan, UT, cat. SH30070.03HI), 50% L-WRN conditioned media (ATCC, cat. CRL-3276), 1.25 mM N-Acetyl-L-cysteine (Sigma-Aldrich, cat. A9165), 10 mM nicotinamide (Sigma-Aldrich, cat. N0636), 1X B-27 supplement (Thermo Fisher Scientific, cat. 17504044), 1X N-2 supplement (Thermo Fisher Scientific, cat. 17502048), 50 ng/mL human EGF (Thermo Fisher Scientific, cat. PHG0311), and 10 microM Y-27632 dihydrochloride (Tocris Bioscience, cat. 1254). The K12877-001-R-J1-PDC line was cultured in 6I media, which includes all 6C/Colon 1B media plus 10 ng/mL human FGF-10 (PeproTech, cat. 100-26), 1 ng/mL human FGF-2 (PeproTech, cat. 100-18B), 1 µM prostaglandin E2 (Tocris Bioscience, cat. 2296), […] hydrocortisone (Sigma-Aldrich, cat. H4001), and […] bovine insulin (Sigma-Aldrich, cat. I6634). The K86415-001-R-J1-PDC line was cultured in 6D media, which includes all 6C/Colon 1B media components minus the L-WRN conditioned media. The 485176-168-R4-J1-PDC was cultured in PANC media, which includes all 6C/Colon 1B media plus 100 ng/mL human FGF-10 (PeproTech, cat. 100-26), 500 nM SB-431542 (Selleckchem, cat. S1067), and 10 nM gastrin (Tocris Bioscience, cat. 3006). […]
# 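Further: spheroids exposed to agents for seven days before readout.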
row,SMILES,"viability, T/C"
1,CC(C)NCC(C(=O)N1CCN(c2ncnc3c2C(C)CC3O)CC1)c1ccc(Cl)cc1 (centres undefined),92.2% [middle of 4 runs]
2,CC(Nc1ccc2c(c1)OCCn1cc(N3C(=O)OCC3C(F)F)nc1-2)C(N)=O (centres undefined),54.5% [middle of 4 runs]
3,CC1(O)CCCC1n1c(=O)c(C(F)F)cc2cnc(NC3CCN(S(C)(=O)=O)CC3)nc21 (centres undefined),72% (2×) and 75% and 80.8%
4,CCC(CC)c1cc(NC2CCC(N)C2)n2nccc2n1 (centres undefined),100% [middle of 4 runs]
5,C[C@@H](NC(=O)c1ncnc(N)c1Cl)c1ncc(C(=O)Nc2cc(C(F)(F)F)c(Cl)cn2)s1,87.8% [middle of 4 runs]
6,Cc1nc(N2CCC3(CC2)COC(C)C3N)c(CO)nc1Sc1ccnc(N)c1Cl (centres undefined),27.2% [middle of 4 runs]
7,NC1c2ccccc2OC12CCN(c1cnc3c(N4CCCc5ncccc54)n[nH]c3n1)CC2 (centres undefined),19.7% and 20.6% and 16.5%
8,Nc1ccn(C2OC(CO)C(O)C2(F)F)c(=O)n1 (centres undefined),22.3% [middle of 4 runs]

# Same assay, conditions: compound 3.16 µM; stronger effect = lower value
row,SMILES,"viability, T/C"
1,C#Cc1c(F)ccc2cc(O)cc(-c3ncc4c(N5CC6CCC(C5)N6)nc(OCC56CCCN5CC(F)C6)nc4c3F)c12 (centres undefined),38.2% [middle of 8 runs]
2,CC(=O)OC12COC1CC(O)C1(C)C(=O)C(O)C3=C(C)C(OC(=O)C(O)C(NC(=O)OC(C)(C)C)c4ccccc4)CC(O)(C(OC(=O)c4ccccc4)C21)C3(C)C (centres undefined),36.2% [middle of 4 runs]
3,CC(C)NCC(C(=O)N1CCN(c2ncnc3c2C(C)CC3O)CC1)c1ccc(Cl)cc1 (centres undefined),65% [middle of 4 runs]
4,CC(Nc1ccc2c(c1)OCCn1cc(N3C(=O)OCC3C(F)F)nc1-2)C(N)=O (centres undefined),40.5% [middle of 4 runs]
5,CCC(CC)c1cc(NC2CCC(N)C2)n2nccc2n1 (centres undefined),3.47% [middle of 4 runs]
6,C[C@@H](NC(=O)c1ncnc(N)c1Cl)c1ncc(C(=O)Nc2cc(C(F)(F)F)c(Cl)cn2)s1,77.2% [middle of 4 runs]
7,Cc1nc(N2CCC3(CC2)COC(C)C3N)c(CO)nc1Sc1ccnc(N)c1Cl (centres undefined),24.6% [middle of 4 runs]
8,NC1c2ccccc2OC12CCN(c1cnc3c(N4CCCc5ncccc54)n[nH]c3n1)CC2 (centres undefined),21% [middle of 4 runs]

# Same assay, conditions: compound 10 µM; stronger effect = lower value
row,SMILES,"viability, T/C"
1,C#Cc1c(F)ccc2cc(O)cc(-c3ncc4c(N5CC6CCC(C5)N6)nc(OCC56CCCN5CC(F)C6)nc4c3F)c12 (centres undefined),17.8% [middle of 8 runs]
2,CC(=O)OC12COC1CC(O)C1(C)C(=O)C(O)C3=C(C)C(OC(=O)C(O)C(NC(=O)OC(C)(C)C)c4ccccc4)CC(O)(C(OC(=O)c4ccccc4)C21)C3(C)C (centres undefined),32.1% [middle of 4 runs]
3,CC(C)NCC(C(=O)N1CCN(c2ncnc3c2C(C)CC3O)CC1)c1ccc(Cl)cc1 (centres undefined),49.1% [middle of 4 runs]
4,CC(Nc1ccc2c(c1)OCCn1cc(N3C(=O)OCC3C(F)F)nc1-2)C(N)=O (centres undefined),29.4% [middle of 4 runs]
5,CC1(O)CCCC1n1c(=O)c(C(F)F)cc2cnc(NC3CCN(S(C)(=O)=O)CC3)nc21 (centres undefined),10.4% [middle of 4 runs]
6,CCC(CC)c1cc(NC2CCC(N)C2)n2nccc2n1 (centres undefined),3.37% [middle of 4 runs]
7,C[C@@H](NC(=O)c1ncnc(N)c1Cl)c1ncc(C(=O)Nc2cc(C(F)(F)F)c(Cl)cn2)s1,64.7% [middle of 4 runs]
8,Cc1nc(N2CCC3(CC2)COC(C)C3N)c(CO)nc1Sc1ccnc(N)c1Cl (centres undefined),20.1% [middle of 4 runs]
9,NC1c2ccccc2OC12CCN(c1cnc3c(N4CCCc5ncccc54)n[nH]c3n1)CC2 (centres undefined),23.1% [middle of 4 runs]

# Same assay, conditions: compound alone; run of 07/15/2024
row,SMILES,IC50
1,C#Cc1c(F)ccc2cc(O)cc(-c3ncc4c(N5CC6CCC(C5)N6)nc(OCC56CCCN5CC(F)C6)nc4c3F)c12 (centres undefined),1.81 µM [middle of 7 runs]

# Same assay, conditions: curve of compound
row,SMILES,IC50
1,CC(=O)OC12COC1CC(O)C1(C)C(=O)C(O)C3=C(C)C(OC(=O)C(O)C(NC(=O)OC(C)(C)C)c4ccccc4)CC(O)(C(OC(=O)c4ccccc4)C21)C3(C)C (centres undefined),< 31.6 nM
2,CC(Nc1ccc2c(c1)OCCn1cc(N3C(=O)OCC3C(F)F)nc1-2)C(N)=O (centres undefined),1.48 µM [middle of 4 runs]
3,CC1(O)CCCC1n1c(=O)c(C(F)F)cc2cnc(NC3CCN(S(C)(=O)=O)CC3)nc21 (centres undefined),5.04 µM [middle of 4 runs]
4,CCC(CC)c1cc(NC2CCC(N)C2)n2nccc2n1 (centres undefined),1.82 µM [middle of 4 runs]
5,C[C@@H](NC(=O)c1ncnc(N)c1Cl)c1ncc(C(=O)Nc2cc(C(F)(F)F)c(Cl)cn2)s1,> 10000 nM
6,Cc1nc(N2CCC3(CC2)COC(C)C3N)c(CO)nc1Sc1ccnc(N)c1Cl (centres undefined),122 nM [middle of 4 runs]
7,NC1c2ccccc2OC12CCN(c1cnc3c(N4CCCc5ncccc54)n[nH]c3n1)CC2 (centres undefined),< 31.6 nM
8,Nc1ccn(C2OC(CO)C(O)C2(F)F)c(=O)n1 (centres undefined),136 nM [middle of 4 runs]
